Marks after values point to notes of the source that are not given here.
How the values were obtained:
Type in all cases: in vivo
[1] = Anti-obesity effect alone and in combination with semaglutide in diet-induced obese (DIO) mice (Example 4); details: for Change in body weight (%) vs. day 0, Maximum efficacy: 8 weeks
Text: Diet-induced obese (DIO) mice, obtained by feeding mice with high-fat food, are characterized by obesity, hyperglycemia, and insulin resistance. Diet-induced obese mice (Taconic, USA) resulting from feeding C57BL/6N mice with high-fat food (60 kcal % fat, Research Diets, Cat #D12492, USA) for 8 weeks were purchased from Raon Bio (Animal Inc., Republic of Korea). The diet-induced obese mice were additionally fed with 60% high-fat food for 5 weeks after arrival, and then used in the present test. On the day before drug treatment, the mice were grouped based on the average body weight of individual mice (n=6 per group), after which 10 and 30 nmol/kg of FM9-6+Fc_hole alone, 10 and 30 nmol/kg of semaglutide (long-acting GLP-1 derivative, SEQ ID NO: 114) alone as a control drug, and FM9-6+Fc_hole and semaglutide were administered subcutaneously every 2 days (Q2D) for a total of 8 weeks in a combination of 10+10 and 30+30 nmol/kg. The semaglutide that was used in the test was Ozempic® (semaglutide) from Novo NorDisk. Here, for vehicle treatment, DPBS (Dulbecco's phosphate-buffered saline, Gibco, USA) was subcutaneously administered every 2 days (Q2D). Body weight was measured every 2 days from the first day of drug treatment to day 54, and the results thereof are shown in Table 4 below.

[2] = Anti-obesity effect by repeated administration alone and in combination with semaglutide in ob/ob mice (Example 5)
Text: The ob/ob mouse has a mutation in the leptin gene resulting in leptin deficiency, and are characterized by hyperglycemia, insulin resistance, overeating, and obesity. 5-week-old male ob/ob mice (Jackson Laboratory, USA) were purchased from Raon Bio (Animal Inc., Republic of Korea). The ob/ob mice were acclimatized with normal food (Teklad Certified Irradiated Global 18% Protein Rodent Diet, 2918C, Harlan Co., USA) for 4 weeks, and drug treatment was started at 9 weeks of age. On the day before drug treatment, the mice were grouped based on the body weight of individual mice and random blood glucose levels determined by sampling at the tail vein (n=6 per group). Thereafter, 1 and 10 nmol/kg of FM9-6+Fc_hole alone, 10 and 30 nmol/kg of semaglutide alone, and FM9-6+Fc_hole and semaglutide at doses of 1+10 and 10+10 nmol/kg in combination were subcutaneously administered thereto a total of 10 times every 3 days (Q3D), and body weight and food intake were measured every day or every 3 days during the experimental period (29 days). Here, DPBS (Dulbecco's phosphate-buffered saline, Gibco, USA) was administered for vehicle treatment.

[3] = Anti-obesity and metabolic parameter effects alone and in combination with large dose of semaglutide in ob/ob mice (Example 6); details: 30 nmol/kg s.c. Q3D
Text: 5-week-old male ob/ob mice (Jackson Laboratory, USA) were purchased from Raon Bio (Animal Inc., Republic of Korea). The ob/ob mice were acclimatized with normal chow or normal chow diet (Teklad Certified Irradiated Global 18% Protein Rodent Diet, 2918C, Harlan Co., USA) for 5 weeks, and drug treatment was started at 10 weeks of age. On the day before drug treatment, the mice were grouped based on the body weight of individual mice and random blood glucose levels determined by sampling at the tail vein (n=6 per group). Thereafter, 1 nmol/kg of FM9-6+Fc_hole alone, 30 nmol/kg of semaglutide alone, and FM9-6+Fc_hole and semaglutide in combination (1+30 nmol/kg) were subcutaneously administered thereto a total of 9 times every 3 days (Q3D), and body weight, food intake, and non-fasting blood glucose were measured every day or every 3 days during the experimental period (24 days). Here, DPBS (Dulbecco's phosphate-buffered saline, Gibco, USA) was administered for vehicle treatment.

[4] = Anti-obesity effect alone and in combination with semaglutide or tirzepatide in DIO mice (Example 7); details: 10 nmol/kg s.c. Q3D
Text: Diet-induced obese (DIO) mice, obtained by feeding mice with high-fat diet, are characterized by obesity, hyperglycemia, and insulin resistance. Diet-induced obese mice (Taconic, USA) resulting from feeding C57BL/6N mice with high-fat food (60 kcal % fat, Research Diets, Cat #D12492, USA) for 8 weeks were purchased from Raon Bio (Animal Inc., Republic of Korea). The diet-induced obese mice were additionally fed with 60% high-fat food for 5 weeks after arrival, and then used in the present test. On the day before drug treatment, the mice were grouped based on the average body weight of individual mice (n=6 per group), after which 0.1 and 1 nmol/kg of FM9-6+Fc_hole alone, 10 nmol/kg of semaglutide (long-acting GLP-1 derivative, SEQ ID NO: 114) and 10 nmol/kg of tirzepatide (long-acting GLP-1/GIP derivative, SEQ ID NO: 117) alone as control drugs, FM9-6+Fc_hole and semaglutide at doses of 0.1+10 and 1+10 nmol/kg in combination, and FM9-6+Fc_hole and tirzepatide at doses of 1+10 nmol/kg in combination were subcutaneously administered thereto every 3 days (Q3D) for a total of 4 weeks. The semaglutide that was used in the test was Ozempic® (semaglutide) from Novo NorDisk, and the tirzepatide that was used was a material synthesized by MedChemExpress (HY-P1731B, USA). Here, DPBS (Dulbecco's phosphate-buffered saline, Gibco, USA) was administered for vehicle treatment, and, during the experimental period (26 days), body weight was measured every day and food intake was measured every 3 days.

[5] = Inhibitory effect on gastric emptying (acetaminophen exposure) in normal rats (Example 8); details: rats; for gastric emptying (in words): vs. negative control
Method: Therefore, this example was performed to investigate the inhibitory effect on gastric emptying when the novel long-acting GDF15 fusion protein was administered at the doses equal to the effective dose, higher than the maximum effective dose, or in combination with a GLP-1 receptor agonist to rats. 6-week-old male SD rats (Orient Bio, Republic of Korea) were purchased from Hallym Lab. Animal Inc., Republic of Korea. Animals were acclimated for 7 days. On the day of drug administration, the rats were grouped based on the average body weight of individual rats (n=5 per group) and fasted for at least 6 hours before oral administration of acetaminophen. Then, 0.1, 1, and 10 nmol/kg of FM9-6+Fc_hole, 10 nmol/kg of semaglutide (long-acting GLP-1 derivative, SEQ ID NO: 114), and combination of FM9-6+Fc_hole and semaglutide (1+10 nmol/kg) were subcutaneously administered. The semaglutide was Ozempic® (semaglutide) from Novo NorDisk. As a negative control drug, D-PBS (normal vehicle) was subcutaneously administered, and as a positive control drug, 30 mg/kg of loperamide was orally administered 45 minutes before acetaminophen administration. On 3, 24 and 72 hours after a single dose of the test articles, acetaminophen was orally administered at 100 mg/kg to rats, and blood samples were collected before and at 30, 60, 90, 120 and 150 minutes after acetaminophen administration. The plasma concentration of acetaminophen was analyzed, and the pharmacokinetic profiles and the systemic exposures of acetaminophen were compared to evaluate the inhibitory effect on gastric emptying among the groups.

semaglutide [reference compound]
Change in body weight (%) vs. day 0, Maximum efficacy ([1]; 10 nmol/kg s.c. Q2D): −26.71 (On Day 30)**** % | Change in body weight (%) vs. day 0, Efficacy on Day 54 ([1]; 10 nmol/kg s.c. Q2D): −17.34**** % | Change in body weight (%) vs. day 0, Maximum efficacy ([1]; 30 nmol/kg s.c. Q2D): −28.13 (On Day 21)**** % | Change in body weight (%) vs. day 0, Efficacy on Day 54 ([1]; 30 nmol/kg s.c. Q2D): −13.40**** % | Change in body weight (%) vs. ob/ob control, Maximum efficacy ([2]; 10 nmol/kg s.c. Q3D): −10.04 (On Day 25)*** % | Change in body weight (%) vs. ob/ob control, Efficacy on Day 29 ([2]; 10 nmol/kg s.c. Q3D): −6.88* % | Change in body weight (%) vs. ob/ob control, Maximum efficacy ([2]; 30 nmol/kg s.c. Q3D): −11.38 (On Day 25)**** % | Change in body weight (%) vs. ob/ob control, Efficacy on Day 29 ([2]; 30 nmol/kg s.c. Q3D): −9.92**** % | Change in body weight (%) vs. ob/ob control, Efficacy on Day 24 [3]: −10.08**** % | Mean of random blood glucose levels (mg/dL), Efficacy on Day 24 [3]: 155.7**** mg/dL | Change in body weight (%) vs. day 0, Maximum efficacy ([4]; 4 weeks): −18.95 (On Day 19)**** % | Change in body weight (%) vs. day 0, Efficacy on Day 26 ([4]; Day 26): −17.69**** % | AUClast of acetaminophen (μg · min/mL), 3 hr ([5]; 10 nmol/kg s.c. single dose, acetaminophen 3 hr after dose): 266.43*** μg · min/mL | AUClast of acetaminophen (μg · min/mL), 24 hr ([5]; 10 nmol/kg s.c. single dose, acetaminophen 24 hr after dose): 2577.72 µg·min/mL | AUClast of acetaminophen (μg · min/mL), 72 hr ([5]; 10 nmol/kg s.c. single dose, acetaminophen 72 hr after dose): 3354.48 µg·min/mL | gastric emptying (in words) ([5]; 24 and 72 hours after administration): gastric emptying was restored | gastric emptying (in words) ([5]; 3 hours after administration): inhibition of gastric emptying

Reference: patent US20240238380A1, “COMPOSITION FOR COMBINATION THERAPY COMPRISING GROWTH DIFFERENTIATION FACTOR-15 VARIANT AND GLUCAGON-LIKE PEPTIDE-1 RECEPTOR AGONIST” (YUHAN CORPORATION, priority 2021, published 2024)
